Laboratory results published in patent US20030027720A1, “Synergistic fungicidal composition comprising a compound analogous to strobilurin” (priority 1995, published 2003).

Columns and labels:
Alternaria brassicae = assay: In vivo test, alternaria disease of radish, preventive treatment 24 hours before infection (Tammes isobole); details: radish seedlings, spray 24 h before infection, reading 6 days after infection
Description: In vivo test of the combination of ICIA5504 with iprodione with respect to alternaria disease of radish (Alternaria brassicae) by preventive treatment 24 hours before infection. A suspension comprising the compounds A and B in a liquid mixture composed of a surface-active agent (oleate of polyoxyethylenated derivative of sorbitan) and water is prepared. The component B is iprodione; the A/B ratio is 0.25, 0.5, 1, 2 or 4. Radish seedlings (variety Pernot), are grown in small pots. When these seedlings are 10-12 days old (cotyledon, 1st leaf stage), they are treated by spraying with the above suspension. […] After 24 hours, each seedling is infected by spraying with an aqueous suspension of spores of Alternaria brassica, which suspension is obtained from an in vitro culture of the fungus. These spores are suspended at a concentration of 40,000 units per cm^3 of inoculum. Infection is carried out by spraying the inoculum at the top surface of the leaves. The infected seedlings are then incubated for six days at 18-20° C. at 90-100% relative humidity under natural light. Reading is carried out 6 days after infection, in comparison with the control seedlings. […]

Pyrenophora teres = assay: In vivo test, helminthosporium disease of barley, preventive treatment 7 days before infection (Colby); details: graded 10 days after infection
Description: In vivo test of the combination of ICIA5504 with iprodione with respect to helminthosporium disease of barley by preventive treatment 7 days before infection.
The fungicides are used at the following doses:
The young barley plants (var. Express) which are 12 days old (first leaf developed stage) are treated with the experimental fungicides at the doses indicated above in a slurry volume of 250 l/ha (3 repeats/dose). Seven days after the treatment, the young barley plants are infected with a suspension of Pyrenophora teres spores (10,000 spores/ml). The young plants are incubated for 48 hours at 20° C., 100% relative humidity (RH). Next, the plants are transferred to a greenhouse at 20° C., 70-80% RH under natural light. The grading of the disease is carried out ten days after infection by estimating the leaf surface area contaminated on the first leaf (10 young plants/pot).
By comparing with the control (non-treated-contaminated) a percentage efficacy is calculated. The synergy is then quantified by using the Colby model.

Structure (SMILES) | dose of A alone necessary for the destruction of 80% of the parasite (Alternaria brassicae) | Observed efficacy (Pyrenophora teres; ICIA5504 1.5 g/ha alone) [%] | Observed efficacy (Pyrenophora teres; ICIA5504 3.1 g/ha alone) [%] | Observed efficacy (Pyrenophora teres; ICIA5504 6.2 g/ha alone) [%] | Observed efficacy (Pyrenophora teres; ICIA5504 12.5 g/ha alone) [%] | Observed efficacy (Pyrenophora teres; ICIA5504 25 g/ha alone) [%] | Observed efficacy (Pyrenophora teres; ICIA5504 50 g/ha alone) [%] | Observed efficacy (Pyrenophora teres; ICIA5504 100 g/ha alone) [%] | Observed efficacy (Pyrenophora teres; ICIA5504 200 g/ha alone) [%] | Observed efficacy (Pyrenophora teres; iprodione 12.5 g/ha alone) [%] | Observed efficacy (Pyrenophora teres; iprodione 25 g/ha alone) [%] | Observed efficacy (Pyrenophora teres; iprodione 50 g/ha alone) [%] | Observed efficacy (Pyrenophora teres; iprodione 100 g/ha alone) [%] | Observed efficacy (Pyrenophora teres; iprodione 200 g/ha alone) [%] | Observed efficacy (Pyrenophora teres; iprodione 400 g/ha alone) [%] | Observed efficacy (Pyrenophora teres; iprodione 800 g/ha alone) [%]
CO/C=C(/C(=O)OC)c1ccccc1Oc1cc(Oc2ccccc2C#N)ncn1 [ICIA5504, methyl (E)-2-{2-[6-(2-cyanophenoxy)pyrimidin-4-yloxy]phenyl}-3-methoxyacrylate] | 115 ppm (mg/l) | 0 | 17.54 | 34.21 | 59.21 | 76.75 | 83.86 | 81.67 | 92.72 | – | – | – | – | – | – | –
CC(C)NC(=O)N1CC(=O)N(c2cc(Cl)cc(Cl)c2)C1=O [iprodione] | – | – | – | – | – | – | – | – | – | 15.79 | 7.02 | 37.72 | 35.09 | 47.37 | 50.88 | 59.65
